The numbers were not newly measured in PMC4284722, “Intrinsic Tryptophan Fluorescence in the Detection and Analysis of Proteins: A Focus on Förster Resonance Energy Transfer Techniques” (International Journal of Molecular Sciences, 2014), which cites them from elsewhere.

Each structure is given as a SMILES string.

This data set concerns serum albumin. Further details: method as in PMID 2313585, PMID 19683079. The conditions noted are these: nonspecific ligand of serum albumin.

Turning to `O=S(=O)(O)c1cccc2cccc(Nc3ccccc3)c12` [ANS, 1-anilinonaphthalene-8-sulfonate], the affinity result is given as “moderate affinity”.
